These results are taken from patent US20090082328A1, “Substituted phenylamino-benzene derivatives useful for treating hyper-proliferative disorders and diseases associated with mitogen extracellular kinase activity” (Bayer Schering Pharma Aktiengesellschaft, priority 2007, published 2009).

Bounds are passed on as bounds.

The first experiment deals with T1, MEK1 (Homo sapiens, UniProt Q02750).
T1 construct: purchased Millipore 14-420
T1 sequence (Q02750 whole entry): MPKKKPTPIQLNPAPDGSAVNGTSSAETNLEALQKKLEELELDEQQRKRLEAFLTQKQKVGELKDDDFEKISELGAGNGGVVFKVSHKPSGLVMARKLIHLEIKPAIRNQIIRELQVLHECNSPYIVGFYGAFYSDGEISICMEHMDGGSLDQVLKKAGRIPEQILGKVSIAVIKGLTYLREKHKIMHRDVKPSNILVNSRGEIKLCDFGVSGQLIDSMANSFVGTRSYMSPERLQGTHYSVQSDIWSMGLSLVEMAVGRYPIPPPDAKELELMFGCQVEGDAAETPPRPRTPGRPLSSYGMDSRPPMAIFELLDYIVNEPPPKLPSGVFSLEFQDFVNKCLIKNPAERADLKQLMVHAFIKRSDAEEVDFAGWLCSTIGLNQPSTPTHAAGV
The experiment is described as follows: MEK1 Activation Kinase Assay (Cot1, HTRF). In kind it is biochemical. The following applies: activation of GST-MEK1 by Cot1. The method, then:
The kinase Cot1 activates MEK1 by phosphorylating its activation loop. The inhibitory activity of compounds of the present invention on this activation of MEK1 was quantified employing the HTRF assay described in the following paragraphs.
As substrate for the kinase reaction the unactive C-terminally His6-tagged GST-MEK1 fusion protein (Millipore cat. no 14-420) was used.
630 (Sigma), 5 mM β-phospho-glycerol] were added and the mixture was incubated for 10 min at 22° C. to allow pre-binding of the test compounds to the GST-MEK1 before the start of the kinase reaction. Then the kinase reaction was started by the addition of 2 μl of a solution of Cot1 in assay buffer and the resulting mixture was incubated for a reaction time of 20 min at 22° C. The concentration of Cot1 in the assay was adjusted depending of the activity of the enzyme lot and was chosen appropriate to have the assay in the linear range, typical enzyme concentrations were in the range of about 2 ng/μl (final conc. in the 5 μl assay volume). […] The resulting mixture was incubated 2 h at 22° C. to allow the binding of the phosphorylated GST-MEK1 to the anti-GST-XL665 and the Eu-cryptate labelled anti-phospho-MEK 1/2 antibody. Subsequently the amount of Ser217/Ser221-phosphorylated substrate was evaluated by measurement of the resonance energy transfer from the Eu-Cryptate-labelled anti-phospho-MEK antibody to the anti-GST-XL665.
(In general: TR-FRET usually uses a lanthanide donor and a delayed reading to cut background.)
Usually IC50 stands for the concentration needed to halve the response being measured. A low value points to higher potency. Compound `CN(C)S(=O)(=O)Nc1cccc(Oc2cc(F)cc(Nc3ccc(I)cc3F)c2C#N)c1` [Example 2.1, N′-[3-[2-cyano-5-fluoro-3-[(2-fluoro-4-iodophenyl)amino]phenoxy]phenyl]-N,N-dimethyl-sulfamide] displayed an IC50 of under 1000 nM.
Still for that read-out and setting: in the case of `CN(C)S(=O)(=O)Nc1cccc(Oc2cc(F)cc(Nc3ccc(I)cc3F)c2C(N)=O)c1` [Example 3.2, 2-[3-[[(dimethylamino)sulfonyl]amino]phenoxy]-4-fluoro-6-[(2-fluoro-4-iodophenyl)amino]-benzamide] it was under 250 nM; in that of `NC(=O)c1c(Nc2ccc(I)cc2F)cc(F)cc1OCCCN1CCCC1=O` [Example 3.3, 4-Fluoro-2-(2-fluoro-4-iodo-phenylamino)-6-[3-(2-oxo-pyrrolidin-1-yl)-propoxy]-benzamide], under 250 nM.
Regarding `NC(=O)c1c(Nc2ccc(I)cc2F)cc(F)cc1OCCc1cccnc1` [Example 3.5, 4-Fluoro-2-(2-fluoro-4-iodo-phenylamino)-6-(2-pyridin-3-yl-ethoxy)-benzamide], the concentration for half-maximal inhibition (IC50) is under 250 nM.
The same measure, in the same setting: in the case of `NC(=O)c1c(Nc2ccc(I)cc2F)cc(F)cc1OC[C@H](O)[C@@H](O)CO` [Example 3.8, 4-Fluoro-2-(2-fluoro-4-iodo-phenylamino)-6-((2S,3S)-2,3,4-trihydroxy-butoxy)-benzamide] it was under 250 nM; in that of `NC(=O)c1c(Nc2ccc(I)cc2F)cc(F)cc1Oc1cccc(N)c1` [Example 4.1, 2-(3-Amino-phenoxy)-4-fluoro-6-(2-fluoro-4-iodo-phenylamino)-benz-amide], under 250 nM.
Still for that read-out and setting: the same measure for `NC(=O)c1c(Nc2ccc(I)cc2F)cc(F)cc1OCCC1CCCCN1` (stereo not shown) [Example 4.5, 4-Fluoro-2-(2-fluoro-4-iodo-phenylamino)-6-(2-piperidin-2-yl-ethoxy)-benzamide]: under 250 nM; for `NC(=O)c1c(Nc2ccc(I)cc2F)cc(F)cc1OCC1CNC1` [Example 4.6, 2-(Azeitidn-3-ylmethoxy)-4-fluoro-6-(2-fluoro-4-iodo-phenylamino)-benzamide]: under 250 nM.
`NC(=O)c1c(Nc2ccc(I)cc2F)cc(F)cc1Oc1ccc2c(c1)S(=O)(=O)CO2` [Example 5.1, 2-(3,3-Dioxo-2,3-dihydro-3λ^6-benzo[1,3]oxathiol-5-yloxy)-4-fluoro-6-(2-fluoro-4-iodo-phenylamino)-benzamide]: the half-inhibitory concentration (IC50) is under 1000 nM.
The compound `NC(=O)c1c(Nc2ccc(I)cc2F)cc(F)cc1Oc1ccccc1` [Example 5.2, 4-Fluoro-2-(2-fluoro-4-iodo-phenylamino)-6-phenoxy-benzamide] had an IC50 of under 250 nM.
On the same count and under the same terms, the same measure for `CS(=O)(=O)Nc1cccc(Oc2cc(F)cc(Nc3ccc(I)cc3F)c2C(N)=O)c1` [Example 6.1a, 4-Fluoro-2-(2-fluoro-4-iodo-phenylamino)-6-(3-methanesulfonylamino-phenoxy)-benzamide]: under 250 nM.
Still for that read-out and setting: in the case of `CCCNS(=O)(=O)Nc1cccc(Oc2cc(F)cc(Nc3ccc(I)cc3F)c2C(N)=O)c1` [Example 6.3, 2-[3-[[(propylamino)sulfonyl]amino]phenoxy]-4-fluoro-6-[(2-fluoro-4-iodophenyl)amino]-benzamide] it was under 250 nM.
The compound `NC(=O)c1c(Nc2ccc(I)cc2F)cc(F)cc1Oc1cccc(N2CCCS2(=O)=O)c1` [Example 6.6, 2-[3-(1,1-Dioxo-1λ^6-isothiazolidin-2-yl)-phenoxy]-4-fluoro-6-(2-fluoro-4-iodo-phenylamino)-benzamide] returned a half-inhibitory concentration (IC50) of under 250 nM.
On the same count and under the same terms, in the case of `NC(=O)c1c(Nc2ccc(I)cc2F)cc(F)cc1Oc1cccc(NS(N)(=O)=O)c1` [Example 6.7, 2-[3-[[(amino)sulfonyl]amino]phenoxy]-4-fluoro-6-[(2-fluoro-4-iodophenyl)amino]-benzamide] it was under 250 nM; in that of `NC(=O)c1c(Nc2ccc(I)cc2F)cc(F)cc1OCCCNS(=O)(=O)c1ccccc1` [Example 6.11, 2-(3-Benzene-sulfonylamino-propoxy)-4-fluoro-6-(2-fluoro-4-iodo-phenylamino)-benzamide], under 250 nM.
`CS(=O)(=O)N1CCCC(COc2cc(F)cc(Nc3ccc(I)cc3F)c2C(N)=O)C1` (stereo not shown) [Example 6.15, 4-Fluoro-2-(2-fluoro-4-iodo-phenylamino)-6-(1-methanesulfonyl-piperidin-3-ylmethoxy)-benzamide] had a half-inhibitory concentration (IC50) of under 1000 nM.
The same measure, in the same setting: in the case of `Cn1cnc(S(=O)(=O)NCCCOc2cc(F)cc(Nc3ccc(I)cc3F)c2C(N)=O)c1` [Example 6.17, 4-Fluoro-2-(2-fluoro-4-iodo-phenylamino)-6-[3-(1-methyl-1H-imidazole-4-sulfonylamino)-propoxy]-benzamide] it was under 250 nM; in that of `CS(=O)(=O)N1CCCCC1CCOc1cc(F)cc(Nc2ccc(I)cc2F)c1C(N)=O` (stereo not shown) [Example 6.22, 4-Fluoro-2-(2-fluoro-4-iodo-phenylamino)-6-[2-(1-methanesulfonyl-piperidin-2-yl)-ethoxy]-benzamide], under 1000 nM; in that of `CC(C)(O)C(O)CCOc1cc(F)cc(Nc2ccc(I)cc2F)c1C(N)=O` (stereo not shown) [Example 7.1, 2-(3,4-Dihydroxy-4-methyl-pentyloxy)-4-fluoro-6-(2-fluoro-4-iodo-phe-nylamino)-benzamide], under 250 nM.
On the same count and under the same terms, the same measure for `NC(=O)c1c(Nc2ccc(I)cc2F)cc(F)cc1O[C@@H]1C[C@@H](O)[C@@H](O)C1` [Example 7.7]: under 250 nM.
The same measure, in the same setting: in the case of `NC(=O)c1c(Nc2ccc(Br)cc2F)cc(F)cc1OCC[C@@H](O)CO` [Example 8.4, 2-(4-Bromo-2-fluoro-phenylamino)-6-((R)-3,4-dihydroxy-butoxy)-4-fluoro-benzamide] it was under 1000 nM; in that of `NC(=O)c1c(Nc2ccc(I)cc2)cc(F)cc1OCC[C@@H](O)CO` [Example 8.5, 2-((R)-3,4-Dihydroxy-butoxy)-4-fluoro-6-(4-iodo-phenylamino)-benzamide], under 1000 nM; in that of `C#Cc1ccc(Nc2cc(F)cc(OCC[C@@H](O)CO)c2C(N)=O)c(F)c1` [Example 9.1, 2-((R)-3,4-Dihydroxy-butoxy)-6-(4-ethynyl-2-fluoro-phenylamino)-4-fluoro-benzamide], under 1000 nM.
`C#Cc1ccc(Nc2cc(F)cc(Oc3cccc(NS(=O)(=O)N(C)C)c3)c2C(N)=O)c(F)c1` [Example 9.4, 2-[3-[[(dimethylamino)sulfonyl]amino]phenyoxy]-4-fluoro-6-[(4-ethynyl-2-fluorophenyl)amino]-benzamide]: the concentration for half-maximal inhibition (IC50) is under 250 nM.
Consider `C#Cc1ccc(Nc2cc(F)cc(Oc3cccc(NS(=O)(=O)NCCC)c3)c2C(N)=O)c(F)c1` [Example 9.5, 2-[3-[[(propylamino)sulfonyl]amino]phenyoxy]-4-fluoro-6-[(4-ethynyl-2-fluorophenyl)amino]-benzamide], for which the IC50 is under 250 nM.
On the same count and under the same terms, the same measure for `NC[C@H](O)CCOc1cc(F)cc(Nc2ccc(I)cc2F)c1C(N)=O` [Example 10.3, 2-((R)-4-Amino-3-hydroxy-butoxy)-4-fluoro-6-(2-fluoro-4-iodo-phenylamino)-benzamide]: under 250 nM; for `NC(=O)c1c(Nc2ccc(I)cc2F)cc(F)cc1OCC[C@@H](O)CN1CCOCC1` [Example 10.6, 4-Fluoro-2-(2-fluoro-4-iodo-phenylamino)-6-((R)-3-hydroxy-4-morpholin-4-yl-butoxy)-benzamide]: under 250 nM.
The same measure, in the same setting: the same measure for `NC(=O)c1c(Nc2ccc(I)cc2F)cc(Cl)cc1OCC[C@@H](O)CO` [Example 11.3, 4-Chloro-2-((R)-3,4-dihydroxy-butoxy)-6-(2-fluoro-4-iodo-phenylamino)-benzamide]: under 1000 nM; for `CNC(=O)c1c(Nc2ccc(I)cc2F)cc(F)cc1OCC[C@@H](O)CO` [Example 12.8, 2-((R)-3,4-Dihydroxy-butoxy)-4-fluoro-6-(2-fluoro-4-iodo-phenylamino)-N-methyl-benzamide]: under 250 nM.

In another experiment the test system is colon cancer.
Test: not given
The settings on record: oral treatment, mouse models, literature [18]; cited from earlier work.
In the case of `O=C(NOCC1CC1)c1ccc(F)c(F)c1Nc1ccc(I)cc1Cl` [PD184352], the “colon cancer growth in vivo” value was “inhibit colon cancer growth”.

System in the next experiment: not given
Test: not given
The settings on record: phase I/II clinical trials in humans, literature [19]; cited from earlier work.
Regarding `O=C(NOCC1CC1)c1ccc(F)c(F)c1Nc1ccc(I)cc1Cl` [PD184352], the clinical efficacy entry is “insufficient efficacy”.
